Measured values from patent US20200383961A1, “TRIPLET THERAPIES OF HDAC INHIBITORS, PD-L1 AND/OR PD-1 INHIBITORS, AND CTLA-4 INHIBITORS” (HUYA Bioscience International, LLC, priority 2019, published 2020).
Read-outs that look alike come from different tables or passages of the source.

Key:
[1] = tested on: relapsed or refractory peripheral T-cell lymphoma (RR/PTCL); assay: Phase 2 monotherapy in relapsed or refractory peripheral T-cell lymphoma; assay type: in vivo, human
Method: The compounds of formula I were used as a monotherapy for relapsed or refractory peripheral T-cell lymphoma (“RR/PTCL”). A dosage of 40 mg biw was approved for this study. A summary of the results is found in Table 10. […] The time after prior treatment was 96 days (vs. 222 days for romidepsin P2 trial). […] The median PFS (months) was 7.6.

[2] = tested on: relapsed or refractory aggressive adult T-cell lymphoma (RR/ATL); assay: Phase 2 monotherapy in relapsed or refractory aggressive adult T-cell lymphoma; assay type: in vivo, human; details: 20 evaluable, 40 mg biw monotherapy
Method: (§1) The compounds of formula I were used as a monotherapy for relapsed or refractory aggressive adult T-cell lymphoma (“RR/ATL”). A dosage of 40 mg biw was approved for this study. A summary of the results is found in Table 12. […] The time after prior treatment was 88 days (vs. 234 days for lenalidomide P2 trial). All patients had received mogamulizumab (“moga”) (lenalidomide ORR in moga patients was 18%).

[3] = Tolerability of compounds of formula I, nivolumab and their combination (adverse events); assay type: in vivo, human; details: for TRAE Anemia G1-2 / TRAE Anemia G3 / TRAE Anemia G4 / TRAE Diarrhea G1-2 / TRAE Diarrhea G3 / TRAE Diarrhea G4 / TRAE Fatigue G1-2 / TRAE Fatigue G3 / TRAE Fatigue G4 / TRAE Hypophospatemia G1-2 / TRAE Hypophospatemia G3 / TRAE Hypophospatemia G4 / TRAE Lymphocyte decrease G1-2 / TRAE Lymphocyte decrease G3 / TRAE Lymphocyte decrease G4 / TRAE Neutrophil decrease G1-2 / TRAE Neutrophil decrease G3 / TRAE Neutrophil decrease G4 / TRAE Platelet decrease G1-2 / TRAE Platelet decrease G3 / TRAE Platelet decrease G4 / TRAE WBC decrease G1-2 / TRAE WBC decrease G3 / TRAE WBC decrease G4: TRAE >= 5% frequency, by association
Method: The tolerability of the compounds of formula I, nivolumab, and a combination of the compounds of formula I and nivolumab were tested. The Phase 2 clinical dosage of 30 mg BIW of the compounds of formula I was administered.

RR/ATL [4] = assay: Historical benchmarks for RR/ATL treatments; assay type: in vivo, human; details: Phase I, listed among benchmarks
Method: as §1

[5] = tested on: tumor micro-environment (TME); details: cited from earlier work
RR/PTCL = details: historical benchmark, cited from earlier work
RR/ATL [6] = details: cited from earlier work; for ORR: historical benchmark, RR/ATL
[7] = 43 evaluable, 40 mg biw monotherapy
[8] = number of patients, 43 evaluable, 40 mg biw monotherapy
[9] = less frequent TRAEs associated with NIVO alone

Nc1cc(F)ccc1NC(=O)c1ccc(CNC(=O)/C=C/c2cccnc2)cc1 [HBI-8000, N-(2-amino-4-fluorophenyl)-4-[[[(2E)-1-oxo-3-(3-pyridinyl)-2-propen-1-yl]amino]methyl]benzamide]
DCR [1, 7]: 74% | ORR [1, 7]: 46% | median PFS ([1]; estimated, PD date by investigator judgement, FIG. 7A): 7.6 months | Complete Responses [1, 8]: 4 | Partial Responses [1, 8]: 16 | Stable Disease [1, 8]: 12 | DCR [2]: 60% | ORR [2]: 40% | Stable Disease ([2]; number of patients): 4 | Partial Responses ([2]; number of patients, all had received mogamulizumab): 8 | TRAE Anemia G1-2 [3]: 14 (22) n (% of N) | TRAE Anemia G3 [3]: 1 (2) n (% of N) | TRAE Anemia G4 [3]: 0 n (% of N) | TRAE Diarrhea G1-2 [3]: 0 n (% of N) | TRAE Diarrhea G3 [3]: 0 n (% of N) | TRAE Diarrhea G4 [3]: 0 n (% of N) | TRAE Fatigue G1-2 [3]: 0 n (% of N) | TRAE Fatigue G3 [3]: 0 n (% of N) | TRAE Fatigue G4 [3]: 0 n (% of N) | TRAE Hypophospatemia G1-2 [3]: 6 (10) n (% of N) | TRAE Hypophospatemia G3 [3]: 4 (6) n (% of N) | TRAE Hypophospatemia G4 [3]: 0 n (% of N) | TRAE Lymphocyte decrease G1-2 [3]: 0 n (% of N) | TRAE Lymphocyte decrease G3 [3]: 0 n (% of N) | TRAE Lymphocyte decrease G4 [3]: 0 n (% of N) | TRAE Neutrophil decrease G1-2 [3]: 8 (13) n (% of N) | TRAE Neutrophil decrease G3 [3]: 5 (8) n (% of N) | TRAE Neutrophil decrease G4 [3]: 1 (2) n (% of N) | TRAE Platelet decrease G1-2 [3]: 23 (37) n (% of N) | TRAE Platelet decrease G3 [3]: 3 (5) n (% of N) | TRAE Platelet decrease G4 [3]: 0 n (% of N) | TRAE WBC decrease G1-2 [3]: 11 (17) n (% of N) | TRAE WBC decrease G3 [3]: 1 (2) n (% of N) | TRAE WBC decrease G4 [3]: 0 n (% of N) | share of TRAEs associated with the agent ([3]; among TRAEs, 63 subjects): 39% | ORR (RR/ATL [4]): 75% | PD-1 and PD-L1 expression ([5]; "cold" tumors): increases | apoptosis scores and signatures ([5]; tumor cells): increasing | conversion of M2 (suppressive) to M1 (antitumor) macrophages ([5]; tumor micro-environment): promotes | influx of CD8+ T cells and NK cells ([5]; tumor micro-environment): increases | number and activity of regulatory T cells (TREGs), myeloid-derived suppressor cells (MDSCs) ([5]; tumor micro-environment): reduces | ratio of active CD8+ effector T cells to "exhausted" CD8 T cells ([5]; tumor micro-environment): increases

Nc1cc(F)ccc1NC(=O)c1ccc(CNC(=O)/C=C/c2cccnc2)cc1 [Epidaza]
ORR (PMS) (RR/PTCL; value in brackets, PMS): 35% | ORR (RR/PTCL): 28%

C#CCC(Cc1cnc2nc(N)nc(N)c2n1)c1ccc(C(=O)N[C@@H](CCC(=O)O)C(=O)O)cc1 (some centres unmarked) [Pralatrexate]
ORR (RR/PTCL): 45%

NIVO: fully human monoclonal antibody directed against PD-1
TRAE Anemia G1-2 [3]: 0 n (% of N) | TRAE Anemia G3 [3]: 0 n (% of N) | TRAE Anemia G4 [3]: 0 n (% of N) | TRAE Diarrhea G1-2 [3]: 4 (6) n (% of N) | TRAE Diarrhea G3 [3]: 1 (2) n (% of N) | TRAE Diarrhea G4 [3]: 0 n (% of N) | TRAE Fatigue G1-2 [3]: 0 n (% of N) | TRAE Fatigue G3 [3]: 0 n (% of N) | TRAE Fatigue G4 [3]: 0 n (% of N) | TRAE Hypophospatemia G1-2 [3]: 0 n (% of N) | TRAE Hypophospatemia G3 [3]: 0 n (% of N) | TRAE Hypophospatemia G4 [3]: 0 n (% of N) | TRAE Lymphocyte decrease G1-2 [3]: 0 n (% of N) | TRAE Lymphocyte decrease G3 [3]: 0 n (% of N) | TRAE Lymphocyte decrease G4 [3]: 0 n (% of N) | TRAE Neutrophil decrease G1-2 [3]: 0 n (% of N) | TRAE Neutrophil decrease G3 [3]: 0 n (% of N) | TRAE Neutrophil decrease G4 [3]: 0 n (% of N) | TRAE Platelet decrease G1-2 [3]: 0 n (% of N) | TRAE Platelet decrease G3 [3]: 0 n (% of N) | TRAE Platelet decrease G4 [3]: 0 n (% of N) | TRAE WBC decrease G1-2 [3]: 0 n (% of N) | TRAE WBC decrease G3 [3]: 0 n (% of N) | TRAE WBC decrease G4 [3]: 0 n (% of N) | TRAE TSH increase [3, 9]: 5 n | TRAE amylase increase [3, 9]: 4 n | TRAE lipase increase [3, 9]: 6 n | TRAE rash [3, 9]: 10 n

Nc1cccc2c1CN(C1CCC(=O)NC1=O)C2=O (centres unmarked) [Lenalidomide]
ORR (RR/ATL [6]): 42% | ORR in moga patients (RR/ATL [6]; patients who had received mogamulizumab, lenalidomide P2 trial): 18%

O=c1[nH]cnc2c([C@@H]3N[C@H](CO)[C@@H](O)[C@H]3O)c[nH]c12 [Forodesine]
ORR (RR/PTCL): 22%

B1: Mogamulizumab: RR/ATL treatment, historical benchmark (antibody, chains of the INN, looked up, V domains shown)
VH: EVQLVESGGDLVQPGRSLRLSCAASGFIFSNYGMSWVRQAPGKGLEWVATISSASTYSYYPDSVKGRFTISRDNAKNSLYLQMNSLRVEDTALYYCGRHSDGNFAFGYWGQGTLVTVSS
VL: DVLMTQSPLSLPVTPGEPASISCRSSRNIVHINGDTYLEWYLQKPGQSPQLLIYKVSNRFSGVPDRFSGSGSGTDFTLKISRVEAEDVGVYYCFQGSLLPWTFGQGTKVEIK
ORR (RR/ATL [6]): 50%
